Experiments:
Assay type in all cases: cell-based
[1] = target: T1, Solute carrier family 2, facilitated glucose transporter member 2 (Homo sapiens, UniProt P11168); assay: Inhibition of GLUT2-mediated [14C]D-glucose uptake in human MCF7 cells by liquid scintillation counting
T1 sequence (P11168 whole entry): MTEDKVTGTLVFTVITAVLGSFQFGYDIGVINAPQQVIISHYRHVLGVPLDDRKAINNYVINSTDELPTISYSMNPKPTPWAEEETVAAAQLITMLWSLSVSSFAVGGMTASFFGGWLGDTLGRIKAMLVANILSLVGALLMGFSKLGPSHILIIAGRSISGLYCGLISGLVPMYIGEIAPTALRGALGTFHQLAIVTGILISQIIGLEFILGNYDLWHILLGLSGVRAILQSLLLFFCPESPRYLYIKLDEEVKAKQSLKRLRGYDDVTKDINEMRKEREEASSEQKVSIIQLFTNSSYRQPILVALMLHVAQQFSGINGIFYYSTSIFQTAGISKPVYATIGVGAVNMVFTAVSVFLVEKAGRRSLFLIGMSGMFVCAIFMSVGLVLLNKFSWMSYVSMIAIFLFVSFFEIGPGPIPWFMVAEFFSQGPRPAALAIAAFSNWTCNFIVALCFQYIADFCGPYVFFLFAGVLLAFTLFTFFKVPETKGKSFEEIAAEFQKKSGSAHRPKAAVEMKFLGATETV

[2] = target: T1, Solute carrier family 2, facilitated glucose transporter member 2; assay: Inhibition of GLUT2-mediated [14C]D-glucose uptake in human MDA-MB-231 cells by liquid scintillation counting
[3] = target: T2, Solute carrier family 2, facilitated glucose transporter member 5 (Homo sapiens, UniProt P22732); assay: Inhibition of GLUT5-mediated [14C]D-fructose uptake in human MCF7 cells by liquid scintillation counting
T2 sequence (P22732 whole entry): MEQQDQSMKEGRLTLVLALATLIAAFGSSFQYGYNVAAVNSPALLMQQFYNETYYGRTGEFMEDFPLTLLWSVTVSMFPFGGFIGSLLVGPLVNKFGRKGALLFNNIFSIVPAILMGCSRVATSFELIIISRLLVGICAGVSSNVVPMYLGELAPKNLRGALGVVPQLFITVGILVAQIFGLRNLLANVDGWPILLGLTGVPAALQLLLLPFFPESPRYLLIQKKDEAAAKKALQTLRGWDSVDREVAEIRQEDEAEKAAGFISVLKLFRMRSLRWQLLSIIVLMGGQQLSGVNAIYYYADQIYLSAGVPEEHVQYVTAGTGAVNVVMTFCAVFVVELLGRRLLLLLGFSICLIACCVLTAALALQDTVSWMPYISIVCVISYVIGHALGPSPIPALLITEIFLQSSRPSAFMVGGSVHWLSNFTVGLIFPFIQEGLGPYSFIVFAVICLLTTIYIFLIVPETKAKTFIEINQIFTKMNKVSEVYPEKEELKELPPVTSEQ

[4] = target: T2, Solute carrier family 2, facilitated glucose transporter member 5; assay: Inhibition of GLUT5-mediated [14C]D-fructose uptake in human MDA-MB-231 cells by liquid scintillation counting

**Q.** Which Ki [1] does the source give for `OCC1(O)O[C@H](CF)[C@@H](O)[C@@H]1O` (some centres undefined) here?
**A.** 916 µM

**Q.** What about the Ki [2] of the same compound?
**A.** 6.21 mM

**Q.** What about the Ki [3] of the same compound?
**A.** 154 µM

**Q.** What about the Ki [4] of the same compound?
**A.** 330 µM

— ChEMBL document CHEMBL1155275, “Synthesis and characterization of 6-deoxy-6-fluoro-D-fructose as a potential compound for imaging breast cancer with PET” (Bioorg Med Chem, 2009)
